Measurements published in PubChem BioAssay (NCI).
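Exposure lasted 48 hours, with cells grown in 96-well plates and compounds tested at five concentrations. Definition used: TGI = concentration required for complete inhibition of growth.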

Tests used:
Assay in all cases: NCI tumour cell line growth inhibition, 48 h
[1] = test system: HCC-2998 colon
[2] = test system: NCI-H522 lung
[3] = test system: SNB-19 CNS
[4] = test system: A498 renal
[5] = test system: U251 CNS
[6] = test system: BT-549 breast
[7] = test system: IGROV1 ovarian
[8] = test system: EKVX NSCLC
[9] = test system: SF-539 CNS
[10] = test system: CAKI-1 renal

Measured: TGI

CC(C)=CCN1c2ccccc2NC(=O)CC1C (centres undefined)
55 µM: [6]
> 100 µM: all other assays above

Cn1c(=O)c2c(nc3n(CC(O)CCl)c(=O)ccn23)n(C)c1=O (centres undefined)
66.2 µM: [10]
> 100 µM: all other assays above

Oc1cc(Cc2ccccc2)c(Cc2ccccc2)cc1O
> 10 µM: all assays above

COC(=O)Cc1cc(O)c2c(c1O)C(=O)c1ccccc1C2=O
> 93.2 µM: [5]
> 87.1 µM: [4]
> 85.5 µM: [3]
> 100 µM: all other assays above

CCc1n[nH]c(=O)n1CCCCCCCCCCCCn1c(CC)n[nH]c1=O
77.5 µM: [6]
86.4 µM: [5]
> 100 µM: all other assays above

Cc1ccc(Nc2nc3[nH]ccc3c(=O)[nH]2)cc1
> 100 µM: all assays above

C=CCSC1=N/C(=C\c2ccc(Cl)cc2)C(=O)N1CC=C
57.3 µM: [8]
76.2 µM: [6]
64.6 µM: [5]
52.4 µM: [4]
79.9 µM: [2]
> 100 µM: all other assays above

CC1CC[C@@]2(OC1)OC1C[C@H]3[C@@H]4CC=C5CC(OC6OC(CO)C(OC7OC(CO)C(O)C(OC8OCC(O)C(O)C8O)C7OC7OC(CO)C(OC8OC(C)C(OC9OC(C)C(O)C(O)C9O)C(O)C8O)C(O)C7O)C(O)C6O)CCC5(C)[C@H]4CCC3(C)C1[C@@H]2C (some centres undefined)
16.8 µM: [2]
15.3 µM: [8] | [10]
16.6 µM: [7]
16.3 µM: [5]
16.4 µM: [6]
14.1 µM: [1]
8.7 µM: [4]
12.7 µM: [9]
11.6 µM: [3]

COC1CC(N)(c2ccccc2)C(O)C(C)O1 (centres undefined)
> 100 µM: all assays above

N#CN1C2CCC1CC(=O)C2
> 100 µM: all assays above

O=C(O)CCc1nc2c(n1-c1ccccc1)C(=O)c1ccccc1C2=O
> 100 µM: all assays above

O=C1c2cccc([N+](=O)[O-])c2C(=O)N1Cc1ccccc1
> 100 µM: all assays above

C=CCOC(=O)N1c2ccc(O[Si](C)(C)C(C)(C)C)cc2[C@@]23O[C@@]24[C@@H]1C#C/C=C\C#C[C@]3(O)C(OC)(OC)C[C@@H]4C
5.48 µM: [4]
> 100 µM: all other assays above

COc1ccc([C@H]2[C@H]3COC(=O)[C@H]3C(C#N)=C3Sc4ccccc4N32)cc1
> 62.3 µM: [10]
98.3 µM: [4]
48.9 µM: [6]
> 68.2 µM: [2]
not listed: [7]
> 100 µM: all other assays above
